Assay results taken from PubChem BioAssay (NCI).
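Method: 48-hour compound exposure of cells in 96-well plates, five concentrations, linear interpolation of endpoints. At the GI50, growth is halved. TGI: concentration producing complete growth inhibition.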

Legend:
Assay in all cases: NCI anticancer screen, dose series, 48 h
HOP-62 NSCLC = system: HOP-62 NSCLC
NCI-H460 lung = system: NCI-H460 lung
HT29 colon = system: HT29 colon
T-47D breast = system: T-47D breast
M14 melanoma = system: M14 melanoma
SW-620 colon = system: SW-620 colon
KM12 colon = system: KM12 colon
SK-OV-3 ovarian = system: SK-OV-3 ovarian
SF-539 CNS = system: SF-539 CNS
NCI-H522 lung = system: NCI-H522 lung

| Compound | GI50 (HOP-62 NSCLC) | TGI (HOP-62 NSCLC) | GI50 (NCI-H460 lung) | TGI (NCI-H460 lung) | GI50 (HT29 colon) | TGI (HT29 colon) | GI50 (T-47D breast) | TGI (T-47D breast) | GI50 (M14 melanoma) | TGI (M14 melanoma) | GI50 (SW-620 colon) | TGI (SW-620 colon) | GI50 (KM12 colon) | TGI (KM12 colon) | GI50 (SK-OV-3 ovarian) | TGI (SK-OV-3 ovarian) | GI50 (SF-539 CNS) | TGI (SF-539 CNS) | GI50 (NCI-H522 lung) | TGI (NCI-H522 lung) |
| --- | --- | --- | --- | --- | --- | --- | --- | --- | --- | --- | --- | --- | --- | --- | --- | --- | --- | --- | --- | --- |
| CCC(=O)Sc1ccccc1C(=O)Nc1ccc(Cl)cc1 | 12.5 µM | 34.2 µM | 4.84 µM | 36 µM | 7.09 µM | 44.5 µM | 8.96 µM | 38.6 µM | 6.42 µM | 43.9 µM | 3.63 µM | 25.8 µM | 6.69 µM | 36.8 µM | 18.7 µM | 53.9 µM | 11.2 µM | 30.5 µM | 6.21 µM | 27.1 µM |
| COC(=O)c1ccc(CN2CCc3c([nH]c4ccccc34)C2CO)o1 (stereo not drawn) | – | > 10 µM | – | – | – | > 10 µM | – | > 10 µM | – | > 10 µM | – | > 10 µM | – | > 10 µM | – | > 10 µM | – | – | – | > 10 µM |
| CCN(CC)c1ccc(NC(C(=O)c2ccccc2)c2ccccc2)cc1 (stereo not drawn) | 4.31 µM | 16.5 µM | 3.08 µM | 11.4 µM | 3.19 µM | > 100 µM | 3.35 µM | 29 µM | 2.16 µM | 5.91 µM | 2.25 µM | 5.93 µM | 4.03 µM | 15.7 µM | 18.6 µM | 78.3 µM | 2.11 µM | 4.98 µM | 2.3 µM | 7.05 µM |
| COc1ccc(C2C3=C(NC(=O)C2C#N)c2ccc4ccccc4c2OCC3)cc1 (stereo not drawn) | 28.2 µM | 86.3 µM | 66.2 µM | > 100 µM | > 100 µM | > 100 µM | > 100 µM | > 100 µM | 90.2 µM | > 100 µM | > 100 µM | > 100 µM | > 100 µM | > 100 µM | 20 µM | 47.1 µM | 12.9 µM | 28 µM | 74.5 µM | > 100 µM |
| Cc1ccc(NS(=O)(=O)c2ccc(-c3cnc(C4CC4)o3)cc2)cc1 | 3.13 µM | 16.7 µM | 3.91 µM | 14.9 µM | 2.34 µM | 11 µM | 2.68 µM | 11 µM | 1.56 µM | 11.7 µM | 2.25 µM | 13.2 µM | 2.53 µM | 15.9 µM | 4.81 µM | 19.6 µM | 3.32 µM | 13 µM | 2.43 µM | 17.4 µM |
| CCOc1ccc(NC(=O)Nc2cc(C(C)C)ccc2C)cc1 | 8.78 µM | 22.8 µM | 9.22 µM | > 100 µM | 32.8 µM | > 100 µM | 8.94 µM | > 100 µM | 21.9 µM | > 100 µM | 11.2 µM | > 100 µM | 11.6 µM | > 100 µM | 12.3 µM | 35.4 µM | 4.39 µM | 16.6 µM | 9.53 µM | 78.3 µM |
